Laboratory results taken from patent publication US6482799B1, “Self-preserving multipurpose ophthalmic solutions incorporating a polypeptide antimicrobial” (The Regents of the University of California, priority 1999, dated 2002).

Legend:
[1] = tested on: P. aeruginosa (ATCC 27853); test: Protocol 3 time-dependent antimicrobial activity at one dose level; assay type: cell-based, Pseudomonas aeruginosa
[2] = tested on: P. aeruginosa (ATCC 27853); test: as above; assay type: cell-based, Pseudomonas aeruginosa; conditions: for Bacterial growth, Buffer and L-indolicidin 50 μg/ml: 100 mM sodium phosphate buffer
Protocol: The objective of this protocol is to establish a procedure for determining the antimicrobial activity of indolicidin (e.g., L-IND) at 50 μg/ml over an extended exposure time up to 24 hours at room temperature. It is believed that this procedure more closely mimics the recommended use of lens-care products.
Exposure of the test organism to indolicidin occurs in a buffered solution for up to 24 hours with sampling for viability at different time intervals. Polypropylene 96-well microtiter plates and microcentrifuge tubes are used for exposure and dilution of indolicidin, respectively.
The following materials are used: sterile glass tubes containing 5 ml of Mueller-Hinton Broth (MHB), Mueller-Hinton agar plates, sterile 96-well polypropylene microtiter plates, and sterile polypropylene microcentrifuge tubes.
One or more of the following microorganisms are used in assays using this protocol or modification of this protocol: Pseudomonas aeruginosa (ATCC 9027), Pseudomonas aeruginosa (ATCC 27853), and S. aureus (ATCC 6538).
Five 5 ml of MHB tubes are innoculated with the tester strain(s) from MHA plates and grown overnight at 37° C. on a shaker (180 rpm). A micropipet tip is prewet for at least 2 minutes with 100 μl of the stock solution of indolicidin (e.g., L-IND). The test article is dispensed back in the stock solution vial and the pipette is reset to a volume of 10 μl. Polypropylene microcentrifuge tubes are used to dilute the stock of indolicidin (10 mg/ml) 10-fold in sterile water. To obtain a 10× solution of indolicidin with a dose level equivalent to 50 μg/ml dose level dilute 10 μl of the stock solution of indolicidin in 90 μl of sterile water. (The concentration of indolicidin in the final exposure volume of 100 μl will be 5 μg when 10 μl of the 10× solution is added to 100 μl of bacterial suspension). […]
Survival is determined by counting the colonies appearing on plates after overnight incubation at 37° C. The results are expressed as CFU/ml and survival is expressed as the percent of the bacteria that survived the treatment. […]

CC[C@H](C)[C@H](N)C(=O)N[C@@H](CC(C)C)C(=O)N1CCC[C@H]1C(=O)N[C@@H](Cc1c[nH]c2ccccc12)C(=O)N[C@@H](CCCCN)C(=O)N[C@@H](Cc1c[nH]c2ccccc12)C(=O)N1CCC[C@H]1C(=O)N[C@@H](Cc1c[nH]c2ccccc12)C(=O)N[C@@H](Cc1c[nH]c2ccccc12)C(=O)N1CCC[C@H]1C(=O)N[C@@H](Cc1c[nH]c2ccccc12)C(=O)N[C@@H](CCCNC(=N)N)C(=O)N[C@@H](CCCNC(=N)N)C(N)=O [L-indolicidin, H2N-ILPWKWPWWPWRR-CONH2]
log cell reduction ([1]; 50 μg/ml, 10 mM sodium phosphate buffer, as early as after 1 minute exposure, initial 2.0×10^6 CFU/ml): ~6 log
survival ([1]; 50 μg/ml, 10 mM sodium phosphate buffer, exposure time 0 hr): 2.4 × 10^6 CFU/ml
survival ([1]; 50 μg/ml, 10 mM sodium phosphate buffer, exposure time 1 hr): 1.6 × 10^6 CFU/ml
survival ([1]; 50 μg/ml, 10 mM sodium phosphate buffer, exposure time 2 hr): 1.1 × 10^5 CFU/ml
survival ([1]; 50 μg/ml, 10 mM sodium phosphate buffer, exposure time 4 hr): 0 CFU/ml
survival ([1]; 50 μg/ml, 10 mM sodium phosphate buffer, exposure time 6 hr): 0 CFU/ml
survival ([1]; 50 μg/ml, 10 mM sodium phosphate buffer, exposure time 12 hr): 0 CFU/ml
survival ([1]; 50 μg/ml, 10 mM sodium phosphate buffer, up to 15 minutes): 100%
killing ([1]; 50 μg/ml, 100 mM sodium phosphate buffer, exposures of between 15 and 60 min): virtually complete killing
survival ([1]; 50 μ/ml, 10 mM sodium phosphate buffer, after 4 hours exposure): no detectable survival
survival ([2]; 50 μg/ml, 100 mM sodium phosphate buffer pH 7.4, all time points 0-24 hours): no survival
Bacterial growth, Buffer and L-indolicidin 50 μg/ml ([2]; incubation time 0 hr): 0
Bacterial growth, Buffer and L-indolicidin 50 μg/ml ([2]; incubation time 24 hr): 0
